Molecules are shown by their SMILES.

This is an account of results in ChEMBL document CHEMBL2057129, “Evaluation of synthetic FK506 analogues as ligands for the FK506-binding proteins 51 and 52” (J Med Chem, 2012).

Experiment [1] deals with T1, Peptidyl-prolyl cis-trans isomerase FKBP4 (Homo sapiens, UniProt Q02790).
T1 sequence (Q02790 whole entry): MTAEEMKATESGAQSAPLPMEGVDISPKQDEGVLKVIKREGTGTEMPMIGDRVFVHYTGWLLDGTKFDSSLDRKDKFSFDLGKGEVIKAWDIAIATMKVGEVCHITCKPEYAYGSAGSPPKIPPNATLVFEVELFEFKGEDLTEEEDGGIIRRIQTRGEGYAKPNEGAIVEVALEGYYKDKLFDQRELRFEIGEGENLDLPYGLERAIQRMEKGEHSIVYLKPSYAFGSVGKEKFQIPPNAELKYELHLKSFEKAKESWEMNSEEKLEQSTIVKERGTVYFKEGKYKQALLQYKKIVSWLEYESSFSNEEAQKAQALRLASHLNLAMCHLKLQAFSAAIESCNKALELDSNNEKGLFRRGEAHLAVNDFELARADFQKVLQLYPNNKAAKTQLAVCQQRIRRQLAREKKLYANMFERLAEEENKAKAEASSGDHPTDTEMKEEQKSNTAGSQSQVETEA
Put plainly: Binding affinity to FKBP52 FK1 domain by fluorescence polarization assay. Background: In fluorescence polarisation assays a small probe gives low polarisation when free and higher when bound to something large.

Experiment [2] deals with Peptidyl-prolyl cis-trans isomerase FKBP1A (Homo sapiens, UniProt P62942). Put plainly: Binding affinity to FKBP12 by fluorescence polarization assay.
Experiment [3] deals with T2, Peptidyl-prolyl cis-trans isomerase FKBP5 (Homo sapiens, UniProt Q13451).
T2 sequence (Q13451 whole entry): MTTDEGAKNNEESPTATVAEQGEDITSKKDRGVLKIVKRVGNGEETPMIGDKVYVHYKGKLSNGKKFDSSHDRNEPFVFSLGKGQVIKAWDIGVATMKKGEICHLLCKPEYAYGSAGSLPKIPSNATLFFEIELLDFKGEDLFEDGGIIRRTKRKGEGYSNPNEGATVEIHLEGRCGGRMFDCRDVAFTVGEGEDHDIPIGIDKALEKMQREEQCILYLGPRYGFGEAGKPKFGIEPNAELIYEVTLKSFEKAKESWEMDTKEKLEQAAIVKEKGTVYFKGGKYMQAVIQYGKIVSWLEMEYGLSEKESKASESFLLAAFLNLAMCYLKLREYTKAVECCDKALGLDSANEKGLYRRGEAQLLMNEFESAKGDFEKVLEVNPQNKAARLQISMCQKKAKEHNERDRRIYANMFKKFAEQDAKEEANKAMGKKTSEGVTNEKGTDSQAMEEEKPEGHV
Put plainly: Binding affinity to FKBP51 FK1 domain by fluorescence polarization assay.

Peptidyl-prolyl cis-trans isomerase FKBP1A, sequence (P62942 whole entry): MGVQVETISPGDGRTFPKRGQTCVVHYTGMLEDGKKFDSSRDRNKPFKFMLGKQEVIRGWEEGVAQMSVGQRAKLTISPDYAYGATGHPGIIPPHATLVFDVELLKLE

As a reminder, the IC50 is the concentration that gives 50% inhibition. The low end stands for greater potency in that assay, the high end for weaker potency in that assay. `COc1cc(C(=O)C(=O)N(C)[C@@H](Cc2ccc(Cl)cc2)C(=O)N(Cc2ccccc2)C(CCc2ccncc2)CCc2ccncc2)cc(OC)c1OC` [TIMCODAR]: the IC50 in experiment [1], in experiment [2] and in experiment [3] was > 100000 nM in each case.

Turning to `CCC(C)(C)C(=O)C(=O)N1CCCC[C@H]1C(=O)O[C@H](CCc1ccc(OC)c(OC)c1)c1cccc(N)c1`, the figures for the IC50 in experiment [1] and in experiment [3] were 1070 nM and 3800 nM, respectively.

`CCC(C)(C)C(=O)C(=O)N1CC=CC[C@H]1C(=O)O[C@H](CCc1ccc(OC)c(OC)c1)c1cccc(OCC(=O)O)c1` registered a 50% inhibitory concentration (IC50) in experiment [2] of 550 nM.

Regarding `COc1ccc(CC[C@@H](OC(=O)[C@@H]2CCCCN2C(=O)C(=O)[C@]2(O)CCCC[C@@H]2C)c2cccc(OCC(=O)O)c2)cc1OC`, the IC50 in experiment [2] worked out at 50 nM.

With `CCC(C)(C)C(=O)C(=O)N1CCC[C@H]1C(=O)O[C@H](CCc1ccc(OC)c(OC)c1)c1cccc(OCCN2CCOCC2)c1`, the IC50 worked out at 5550 nM in experiment [1], 1050 nM in experiment [2] and 15300 nM in experiment [3].

For `COc1ccc(CC[C@@H](OC(=O)[C@@H]2CCCCN2C(=O)C(=O)[C@]2(O)CCCC[C@@H]2C)c2cccc(OCC(=O)O)c2)cc1OC` (mixture of isomers), in experiment [2], the IC50 was found to be 60 nM. This counts as double-digit nanomolar.

In turn, `CC[C@@H]1CCCC[C@@]1(O)C(=O)C(=O)N1CCCC[C@H]1C(=O)O[C@H](CCc1ccc(OC)c(OC)c1)c1cccc(OCC(=O)O)c1` (mixture of isomers) came in with an IC50 in experiment [2] of 320 nM.

`CC[C@H]1CCCC[C@@]1(O)C(=O)C(=O)N1CCCC[C@H]1C(=O)O[C@H](CCc1ccc(OC)c(OC)c1)c1cccc(OCC(=O)O)c1` (mixture of isomers) showed an IC50 in experiment [2] of 570 nM.

For the compound `CC[C@H]1CCCC[C@]1(O)C(=O)C(=O)N1CCCC[C@H]1C(=O)O[C@H](CCc1ccc(OC)c(OC)c1)c1cccc(OCC(=O)O)c1`, the IC50 in experiment [2] amounted to 343 nM.

`CCC(C)(C)C(=O)C(=O)N1CCSC[C@H]1C(=O)O[C@H](CCc1ccc(OC)c(OC)c1)c1cccc(OCC(=O)O)c1`: the IC50 was > 100000 nM in experiment [1], 1290 nM in experiment [2] and > 100000 nM in experiment [3].

`CC[C@@H]1CCCC[C@@]1(O)C(=O)C(=O)N1CCCC[C@H]1C(=O)O[C@H](CCc1ccc(OC)c(OC)c1)c1cccc(OCCN2CCOCC2)c1` (mixture of isomers): in experiment [2], the IC50 is 470 nM. In other words, the sub-micromolar range.

As for `CCC(C)(C)C(=O)C(=O)N1CCCC[C@H]1C(=O)NC(CCc1ccc(OC)c(OC)c1)c1cccc(OCC(=O)O)c1` (mixture of isomers), the IC50 in experiment [1] is > 100000 nM; in experiment [2], 3380 nM; in experiment [3], > 100000 nM.

For the compound `CCC(C)(C)C(=O)C(=O)N1CCC[C@H]1C(=O)OCCCc1cccnc1` [GPI-1046], the IC50 was > 100000 nM in experiment [1], 1240 nM in experiment [2] and > 100000 nM in experiment [3].

As to `COc1cc(C(=O)C(=O)N2CCCC[C@H]2C(=O)OC(CCCc2cccnc2)CCCc2cccnc2)cc(OC)c1OC` [BIRICODAR], the IC50 was found to be 7370 nM in experiment [1], 17 nM in experiment [2] and 8520 nM in experiment [3].

In the case of `CCC(C)(C)C(=O)C(=O)N1CCCC[C@H]1C(=O)O[C@H](CCc1ccc(OC)c(OC)c1)c1cccc(OCCN2CCOCC2)c1`, the IC50 in experiment [1] was 2800 nM; in experiment [2], 100 nM.

Regarding `CCC(C)(C)C(=O)C(=O)N1CCC[C@H]1C(=O)O[C@H](CCc1ccc(OC)c(OC)c1)c1cccc(OCC(=O)O)c1`, in experiment [2], the IC50 worked out at 800 nM.

`COc1ccc(CC[C@@H](OC(=O)[C@@H]2CCCCN2C(=O)C(=O)[C@]2(O)CCCC[C@H]2C)c2cccc(OCC(=O)O)c2)cc1OC` (mixture of isomers) displayed an IC50 in experiment [2] of 60 nM. This IC50 lies about 13-fold lower than the previous one.

`CCC(C)(C)C(=O)C(=O)N1CCCC[C@H]1C(=O)OCCOc1ccc(OC)c(OC)c1`: the values for the IC50 in experiment [1], in experiment [2] and in experiment [3] were > 100000 nM, 2450 nM and > 100000 nM, respectively.

For the compound `COc1ccc(CC[C@@H](OC(=O)[C@@H]2CCCCN2C(=O)C(=O)[C@@]2(O)CCCC[C@@H]2C)c2cccc(OCC(=O)O)c2)cc1OC`, the IC50 in experiment [2] was determined as 50 nM.

Compound `COc1ccc(CC[C@@H](OC(=O)[C@@H]2CCCCN2C(=O)C(=O)[C@]2(O)CCCC[C@H]2C)c2cccc(OCC(=O)O)c2)cc1OC` came in with an IC50 in experiment [2] of 60 nM.

Compound `COc1ccc(CC[C@@H](OC(=O)[C@@H]2CCCCN2C(=O)C(=O)c2cc(OC)c(OC)c(OC)c2)c2cccc(OCC(=O)O)c2)cc1OC` had an IC50 in experiment [2] of 150 nM.

Regarding `CCC(C)(C)C(=O)C(=O)N1CCCC[C@H]1C(=O)OC`, the values for the IC50 in experiment [1], in experiment [2] and in experiment [3] were > 100000 nM, 17100 nM and > 100000 nM, respectively.

As for `COc1ccc(CC[C@@H](OC(=O)[C@@H]2CCCCN2C(=O)C(=O)[C@]2(O)CCCC[C@H]2CO)c2cccc(OCC(=O)O)c2)cc1OC`, in experiment [2], the IC50 was 510 nM.

For the compound `CCC(C)(C)C(=O)C(=O)N1CCCC[C@H]1C(=O)O[C@H](CCc1ccc(OC)c(OC)c1)c1cccc(OCC(=O)O)c1`, the IC50 in experiment [1] was found to be 10500 nM; in experiment [2] it was 170 nM.

For `CC[C@@H]1CCCC[C@@]1(O)C(=O)C(=O)N1CCCC[C@H]1C(=O)OCCOc1ccc(OC)c(OC)c1` (mixture of isomers), the IC50 in experiment [1] was > 100000 nM; in experiment [2], 2780 nM; in experiment [3], > 100000 nM.

As for `COc1ccc(CC[C@@H](OC(=O)[C@@H]2CCCCN2C(=O)C(=O)[C@]2(O)CCCC[C@H]2C)c2cccc(OCCN3CCOCC3)c2)cc1OC` (mixture of isomers), in experiment [2], the IC50 came to 60 nM.

As for `CCC(C)(C)C(=O)C(=O)N1CCCC[C@H]1C(=O)OCCCc1cccnc1`, the IC50 in experiment [1] is > 150000 nM; in experiment [2] it was 2110 nM; in experiment [3], > 150000 nM.

In experiment [2], `CC[C@@H]1CCCC[C@@]1(O)C(=O)C(=O)N1CCCC[C@H]1C(=O)O[C@H](CCc1ccc(OC)c(OC)c1)c1cccc(OCC(=O)O)c1` registered an IC50 of 130 nM.

In turn, `COc1ccc(CC[C@@H](OC(=O)[C@@H]2CCCCN2C(=O)C(=O)[C@@]2(O)CCCC[C@H]2C)c2cccc(OCC(=O)O)c2)cc1OC` gave an IC50 in experiment [2] of 60 nM.

In the case of `COc1ccc(CCOC(=O)[C@@H]2CCCCN2C(=O)C(=O)[C@]2(O)CCCC[C@H]2C)cc1OC` (mixture of isomers), the figures for the IC50 in experiment [1], in experiment [2] and in experiment [3] were > 100000 nM, 2200 nM and > 100000 nM, respectively.

`COc1ccc(OCCOC(=O)[C@@H]2CCCCN2C(=O)C(=O)[C@]2(O)CCCC[C@H]2C)cc1OC` (mixture of isomers): the figures for the IC50 in experiment [1], in experiment [2] and in experiment [3] were 11700 nM, 310 nM and 29400 nM, respectively.
